Format in all cases: biochemical
In assay [1] the target is full-length SHP2-E76K oncogenic mutant (Homo sapiens (Human), UniProt Q06124, E76K). The experiment in a line: DiFMUP fluorescence intensity phosphatase inhibition assay, SHP2-E76K. The method in brief:
(§1)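 DiFMUP at its Km per construct (60 μM WT, 20 μM E76K and SHP2cat), 0.5 nM enzyme, pH 6.0 Bis-Tris, RT; SHP2-WT preactivated with 500 nM bis-phospho IRS-1 peptide; 20 min inhibitor preincubation. Kinetic fluorescence (ex 360/em 460 nm); IC50 from background-corrected initial rates, 10-point curves.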

The target of assay [2] is full-length SHP2 wild-type (SHP2-WT) (Homo sapiens (Human), UniProt Q06124). The experiment in a line: DiFMUP fluorescence intensity phosphatase inhibition assay, SHP2-WT activated with IRS-1 peptide. As to conditions: DiFMUP at Km (60 μM), IRS-1 peptide activated. In a few lines:
as §1

The next assay concerns the target PTP1B catalytic domain (Homo sapiens (Human), UniProt P18031). The experiment in a line: DiFMUP phosphatase inhibition assay, PTP1B. As to conditions: for IC50: catalytic domain, DiFMUP at Km (25 μM); for fold selectivity for SHP2 over PTP1B: from IC50 values against catalytic domains. The protocol:
(§2) Selectivity is one of the biggest challenges in PTP inhibitor development. […] Similar to SHP2, we adapted a 384-well plate format DiFMUP assay for recombinant PTP1B and STEP and performed Michaelis-Menten experiments to determine DiFMUP Km values for each phosphatase. IC50 values of our inhibitors for PTP1B and STEP were determined in 10-point dose-response assays with DiFMUP used at the concentration corresponding to the respective Km value. […] Other inhibitors with good relative selectivity for SHP2 included #02 (13-fold selective over PTP1B; 73-fold selective over STEP) and #05 (5-fold selective over PTP1B; >71-fold selective over STEP).
(§3) SHP2 inhibitors were tested at room temperature (RT) in a 384-well plate format standard phosphatase fluorescence intensity assay using DiFMUP (Invitrogen/Thermo Fisher Scientific, Carlsbad, CA) as a substrate and a total reaction volume of 25 μL. SHP2 inhibitors or vehicle (DMSO) were spotted in triplicate into a black Greiner FLUOTRAC™ 200 384-well microplate (#781076, Greiner) for a 10-point dose-response assay using an Echo®555 Liquid Handler (Labcyte, Inc., San Jose, CA). PTP working solutions were prepared at a 0.625 nM concentration (for a final concentration of 0.5 nM) in buffer containing 50 mM Bis-Tris pH 6.0, 50 mM NaCl, 5 mM DTT, and 0.01% Tween® 20. Prior to the assay, a dually phosphorylated insulin receptor substrate 1 (IRS-1) peptide [625 nM (500 nMfinal) (30)] was added to full-length WT SHP2 working solutions and incubated for 20 min. DiFMUP working solutions at 5× final concentration were prepared in 50 mM Bis-Tris pH 6.0, 50 mMNaCl, and 0.01% Tween 20. 20 μL of PTP working solution was dispensed into the microplate and incubated with inhibitor for 20 min at RT. […] The reaction was initiated by addition of 5 μL DiFMUP working solutions. Fluorescence intensity was measured in kinetic mode (every minute for 7 or 10 min) using a Tecan Spark® Multimode Microplate Reader (Tecan, Groedig, Austria) with an excitation wavelength of 360 nm and an emission wavelength of 460 nm. The initial rates were determined from the linear progression curves of the PTP reaction. The nonenzymatic hydrolysis of the substrate was corrected by using a control without addition of enzyme. IC50 values were calculated from the corrected initial rates by nonlinear regression using the program GraphPad Prism (GraphPad Software, Inc., San Diego, CA) Version 8. Dose-response inhibition assays of SHP2cat using the substrate OMFP were performed similarly as described above for DiFMUP. OMFP was used at a concentration corresponding to its Km value for SHP2cat (50 μM final). Fluorescence intensity was measured in kinetic mode (every minute for 10 min) using a Tecan Spark Multimode Microplate Reader with an excitation wavelength of 485 nm and an emission wavelength of 535 nm. Initial rates were determined and IC50 vales calculated as described above.

Assay [3] addresses striatal-enriched tyrosine phosphatase (STEP) catalytic domain (Homo sapiens (Human), UniProt P54829). The experiment in a line: DiFMUP phosphatase inhibition assay, STEP. As to conditions: for IC50: catalytic domain, DiFMUP at Km (4 μM); for fold selectivity for SHP2 over STEP: from IC50 values against catalytic domains. The protocol:
as §2, §3

The mark [4] stands for this setting: DiFMUP at Km (20 μM), 10-point dose-response, read-out: SHP2-E76K IC50.

As a reminder, the IC50 is the concentration that inhibits the measured activity by half.

Read-outs that look alike come from different tables or passages of the source.

Sequence of full-length SHP2 wild-type (SHP2-WT) (Q06124 whole entry, other chains not shown): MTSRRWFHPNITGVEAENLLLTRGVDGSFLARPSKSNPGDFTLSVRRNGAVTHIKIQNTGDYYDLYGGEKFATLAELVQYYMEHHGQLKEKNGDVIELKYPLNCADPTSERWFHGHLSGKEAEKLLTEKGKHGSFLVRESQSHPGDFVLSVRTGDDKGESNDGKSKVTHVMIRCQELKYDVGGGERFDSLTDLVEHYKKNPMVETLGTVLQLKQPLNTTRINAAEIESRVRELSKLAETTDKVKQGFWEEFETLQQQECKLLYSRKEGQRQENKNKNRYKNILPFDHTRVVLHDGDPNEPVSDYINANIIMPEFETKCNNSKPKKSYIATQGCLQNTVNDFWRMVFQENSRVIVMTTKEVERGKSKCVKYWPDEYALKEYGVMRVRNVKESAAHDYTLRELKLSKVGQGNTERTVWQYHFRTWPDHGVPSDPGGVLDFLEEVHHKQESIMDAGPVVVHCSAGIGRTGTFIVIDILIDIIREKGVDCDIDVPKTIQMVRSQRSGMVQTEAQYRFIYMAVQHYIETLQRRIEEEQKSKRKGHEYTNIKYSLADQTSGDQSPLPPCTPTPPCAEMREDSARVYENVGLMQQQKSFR
Sequence of striatal-enriched tyrosine phosphatase (STEP) catalytic domain (P54829 280-565 limits assumed): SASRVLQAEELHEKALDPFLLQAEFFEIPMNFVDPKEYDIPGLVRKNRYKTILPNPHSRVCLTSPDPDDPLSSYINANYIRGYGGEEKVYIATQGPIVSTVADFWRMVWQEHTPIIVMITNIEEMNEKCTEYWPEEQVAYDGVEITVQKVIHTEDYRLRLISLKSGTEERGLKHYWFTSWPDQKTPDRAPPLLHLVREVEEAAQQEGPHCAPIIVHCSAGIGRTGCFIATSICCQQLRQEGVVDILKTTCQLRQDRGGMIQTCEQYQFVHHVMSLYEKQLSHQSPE
Sequence of full-length SHP2-E76K oncogenic mutant (Q06124 whole entry E76K): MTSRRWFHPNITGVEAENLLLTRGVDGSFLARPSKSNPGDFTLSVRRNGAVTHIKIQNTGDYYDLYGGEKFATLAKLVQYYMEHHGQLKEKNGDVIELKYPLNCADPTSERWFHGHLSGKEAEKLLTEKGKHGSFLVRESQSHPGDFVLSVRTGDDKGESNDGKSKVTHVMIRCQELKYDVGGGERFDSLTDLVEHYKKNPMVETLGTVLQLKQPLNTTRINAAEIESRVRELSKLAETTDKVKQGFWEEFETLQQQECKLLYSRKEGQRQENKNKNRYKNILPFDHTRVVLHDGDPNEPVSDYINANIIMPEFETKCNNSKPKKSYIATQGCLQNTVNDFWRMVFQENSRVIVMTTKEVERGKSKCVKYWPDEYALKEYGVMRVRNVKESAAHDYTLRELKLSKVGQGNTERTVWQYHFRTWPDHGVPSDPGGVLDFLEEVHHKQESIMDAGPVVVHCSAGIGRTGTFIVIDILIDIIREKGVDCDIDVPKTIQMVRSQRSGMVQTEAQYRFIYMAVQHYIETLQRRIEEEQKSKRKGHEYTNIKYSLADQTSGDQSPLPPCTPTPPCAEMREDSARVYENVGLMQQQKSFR
Sequence of PTP1B catalytic domain (P18031 1-300): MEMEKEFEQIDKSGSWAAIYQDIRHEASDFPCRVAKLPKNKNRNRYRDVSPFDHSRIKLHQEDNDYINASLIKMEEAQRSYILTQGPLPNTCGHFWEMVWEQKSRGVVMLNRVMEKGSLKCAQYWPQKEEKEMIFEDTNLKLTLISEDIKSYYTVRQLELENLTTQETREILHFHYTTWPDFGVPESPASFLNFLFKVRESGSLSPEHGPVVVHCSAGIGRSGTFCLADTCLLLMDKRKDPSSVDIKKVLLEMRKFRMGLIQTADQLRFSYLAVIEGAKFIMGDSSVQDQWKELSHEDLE

As for `Nc1ccc(NC(=O)c2cc(-c3ccc(/C=C4\Sc5ccccc5C4=O)o3)ccc2O)cc1` [#01, (Z)—N-(4-Aminophenyl)-2-hydroxy-5-(5-((3-oxobenzo[b]thiophen-2(3H)-ylidene)methyl)furan-2-yl)benzamide], the IC50 in assay [1] (setting [4]) is no more than 1 µM; in assay [2], 1 to 20 µM; at PTP1B catalytic domain, 6.8 µM; in assay [3] it was 44 µM. Besides, the “fold selectivity for SHP2 over PTP1B” value on PTP1B catalytic domain is reported as 31 fold. The “fold selectivity for SHP2 over STEP” value in assay [3] came to 200 fold.

Take `O=C(Nc1ccccc1)c1cc(-c2ccc(/C=C3\Sc4ccccc4C3=O)o2)ccc1O` [#02, (Z)-2-hydroxy-5-(5-((3-oxobenzo[b]thiophen-2(3H)-ylidene)methyl)furan-2-yl)-N-phenylbenzamide]: the IC50 in assay [1] (setting [4]) was 1 to 20 µM; in assay [1] (IC50 against SHP2-E76K, in vitro phosphatase inhibition assay, screening hit, heading: IC50 against SHP2-E76K), 1.8 µM; in assay [2], 1 to 20 µM; on PTP1B catalytic domain, 9.4 µM; in assay [3] it was 53 µM. In addition, at PTP1B catalytic domain, the “fold selectivity for SHP2 over PTP1B” value is 13 fold. Besides, the “fold selectivity for SHP2 over STEP” value in assay [3] was 73 fold.

As to `N#Cc1cc(-c2ccc(/C=C3\Sc4ccccc4C3=O)o2)ccc1O` [#05, (Z)-2-Hydroxy-5-(5-((3-oxobenzo[b]thiophen-2(3H)-ylidene)methyl)furan-2-yl)benzonitrile], the IC50 in assay [1] (setting [4]) is 1 to 20 µM; in assay [2], 1 to 20 µM; against PTP1B catalytic domain, 7.4 µM; in assay [3], greater than 100 µM. The “fold selectivity for SHP2 over PTP1B” value at PTP1B catalytic domain worked out at 5 fold.

For the origin of these results see patent US20250026741A1, “INHIBITORS OF THE ONCOGENIC SHP2 PHOSPHATASE AND USES THEREOF” (Sanford Burnham Prebys Medical Discovery Institute, priority 2021, published 2025).
